pKd: −log10 of the molar value. No end group written: not given here.
Key:
Bcl-W = target: T1, Bcl-W (Homo sapiens, UniProt Q92843); assay: Fluorescence polarisation, Kd of peptide with GST-Bcl-W; type: binding; conditions: 15 nM peptide labelled with fluorescein at the N-terminal end; GST-Bcl-W 1 nM to 5 μM; pH 7.4; FIG. 3; read-out: Kd obtained with Bcl-W
T1 sequence (Q92843 1-193): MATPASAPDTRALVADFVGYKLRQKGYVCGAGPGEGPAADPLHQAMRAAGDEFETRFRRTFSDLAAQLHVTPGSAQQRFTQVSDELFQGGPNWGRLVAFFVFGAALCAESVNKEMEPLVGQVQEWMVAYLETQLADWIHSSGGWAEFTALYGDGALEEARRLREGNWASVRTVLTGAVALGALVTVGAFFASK
Description: (§1) 2) Fluorescence Polarisation: Determination of the Kd of the Interaction Between the Peptide Obtained in Example 1 and the Anti-Apoptotic Protein
(§2) A 15 nM solution of the peptide obtained in Example 1 labelled with fluorescein at the N-terminal end is mixed with a solution containing the fusion protein GST-Bcl-XL or GST-Bcl-W at a concentration varying from 1 nM to 5 μM in a buffer containing Na2HPO4 20 mM pH 7.4, EDTA 1 mM, NaCl 50 mM, pluronic acid F-68 0.05%. The fluorescence polarisation is then measured by the En Vision apparatus (Packard Perkin-Elmer).

Bcl-XL = Bcl-XL (Homo sapiens, UniProt Q07817); assay: Fluorescence polarisation, Kd of peptide with GST-Bcl-XL; type: binding; conditions: 15 nM peptide labelled with fluorescein at the N-terminal end; GST-Bcl-XL 1 nM to 5 μM; pH 7.4; FIG. 2; read-out: Kd obtained with Bcl-XL
Description: as §1, §2

Chain of Bcl-XL (Q07817 whole entry, species assumed): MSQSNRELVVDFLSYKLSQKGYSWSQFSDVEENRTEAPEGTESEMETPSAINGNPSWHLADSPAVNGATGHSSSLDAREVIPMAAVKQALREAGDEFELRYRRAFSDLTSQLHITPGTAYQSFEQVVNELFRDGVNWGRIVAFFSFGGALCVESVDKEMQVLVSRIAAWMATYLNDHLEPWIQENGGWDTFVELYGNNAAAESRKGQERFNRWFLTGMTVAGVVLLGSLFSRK

pKd (Bcl-W): 6.39
pKd (Bcl-XL): 6.67
Sequence: DTRRSMVFARHLREVGDEFRSR [peptide obtained in Example 1]
